Tested on: 186277-243-T-J2-PDC complex spheroid viability
Assay: Anticancer human tumor 186277-243-T-J2-PDC patient-derived colon adenocarcinoma cell line growth inhibition [GQUAD]
Conditions: for IC50: curve of first compound; for viability, T/C: stronger effect = lower value
How it was run: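 Viability of tumor cells grown as complex spheroids with endothelial and stromal cells, exposed to drug combinations. Top concentration at or near clinical Cmax (else 10 microM), diluted in half-log increments.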

[1] = second compound 0.0316 µM, first compound 0.0316 µM
[2] = second compound 0.0316 µM, first compound 0.1 µM
[3] = second compound 0.0316 µM, first compound 0.316 µM
[4] = second compound 0.0316 µM, first compound 1 µM
[5] = second compound 0.0316 µM, first compound 3.16 µM
[6] = second compound 0.0316 µM, first compound 10 µM
[7] = second compound 0.1 µM, first compound 0.0316 µM
[8] = second compound 0.1 µM, first compound 0.1 µM
[9] = second compound 0.1 µM, first compound 0.316 µM
[10] = second compound 0.1 µM, first compound 1 µM
[11] = second compound 0.1 µM, first compound 3.16 µM
[12] = second compound 0.1 µM, first compound 10 µM
[13] = second compound 0.316 µM, first compound 0.0316 µM
[14] = second compound 0.316 µM, first compound 0.1 µM
[15] = second compound 0.316 µM, first compound 0.316 µM
[16] = second compound 0.316 µM, first compound 1 µM
[17] = second compound 0.316 µM, first compound 3.16 µM
[18] = second compound 0.316 µM, first compound 10 µM
[19] = second compound 1 µM, first compound 0.0316 µM
[20] = second compound 1 µM, first compound 0.1 µM
[21] = second compound 1 µM, first compound 0.316 µM
[22] = second compound 1 µM, first compound 1 µM
[23] = second compound 1 µM, first compound 3.16 µM
[24] = second compound 1 µM, first compound 10 µM
[25] = second compound 3.16 µM, first compound 0.0316 µM
[26] = second compound 3.16 µM, first compound 0.1 µM
[27] = second compound 3.16 µM, first compound 0.316 µM
[28] = second compound 3.16 µM, first compound 1 µM
[29] = second compound 3.16 µM, first compound 3.16 µM
[30] = second compound 3.16 µM, first compound 10 µM
[31] = second compound 10 µM, first compound 0.0316 µM
[32] = second compound 10 µM, first compound 0.1 µM
[33] = second compound 10 µM, first compound 0.316 µM
[34] = second compound 10 µM, first compound 1 µM
[35] = second compound 10 µM, first compound 3.16 µM
[36] = second compound 10 µM, first compound 10 µM
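Wherever viability, T/C is given: 100% = DMSO vehicle control viability.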

CC(C)(O)C1CCC(Nc2ccc3ncc(-c4cccc(C(F)(F)F)c4)n3n2)CC1 (centres undefined) + Cc1cnc(CNC(=O)c2c(=O)c3ccc(N4CCCN(C)CC4)nc3n3c2sc2ccccc23)cn1
IC50 (second compound 0.0316 µM): 2430 nM | IC50 (second compound 0.1 µM): 1670 nM | IC50 (second compound 0.316 µM): 1190 nM | IC50 (second compound 1 µM): < 31.6 nM | IC50 (second compound 3.16 µM): < 31.6 nM | IC50 (second compound 10 µM): < 31.6 nM | viability, T/C [1]: 88.7% | viability, T/C [2]: 85.8% | viability, T/C [3]: 94.4% | viability, T/C [4]: 75.5% | viability, T/C [5]: 43% | viability, T/C [6]: 37.2% | viability, T/C [7]: 81.3% | viability, T/C [8]: 78.1% | viability, T/C [9]: 77% | viability, T/C [10]: 59.6% | viability, T/C [11]: 37.9% | viability, T/C [12]: 34.3% | viability, T/C [13]: 55.5% | viability, T/C [14]: 49.5% | viability, T/C [15]: 66.8% | viability, T/C [16]: 54.2% | viability, T/C [17]: 25.2% | viability, T/C [18]: 20.9% | viability, T/C [19]: 48.5% | viability, T/C [20]: 48.2% | viability, T/C [21]: 46.3% | viability, T/C [22]: 43.2% | viability, T/C [23]: 24.2% | viability, T/C [24]: 22.1% | viability, T/C [25]: 34.5% | viability, T/C [26]: 42.2% | viability, T/C [27]: 38.7% | viability, T/C [28]: 35.3% | viability, T/C [29]: 3.82% | viability, T/C [30]: 0.12% | viability, T/C [31]: 37.5% | viability, T/C [32]: 43.4% | viability, T/C [33]: 37.1% | viability, T/C [34]: 39.7% | viability, T/C [35]: 0.2% | viability, T/C [36]: 0.2%

COc1ncnc(C2CC2)c1-c1ncc2cnn(Cc3ccc(-c4nc(C(F)(F)F)cn4C(C)C)cc3)c2n1 + Cc1cnc(CNC(=O)c2c(=O)c3ccc(N4CCCN(C)CC4)nc3n3c2sc2ccccc23)cn1
IC50 (second compound 0.0316 µM): > 10000 nM | IC50 (second compound 0.1 µM): > 10000 nM | IC50 (second compound 0.316 µM): > 10000 nM | IC50 (second compound 1 µM): < 31.6 nM | IC50 (second compound 3.16 µM): < 31.6 nM | IC50 (second compound 10 µM): < 31.6 nM | viability, T/C [1]: 90% | viability, T/C [2]: 73.9% | viability, T/C [3]: 86.6% | viability, T/C [4]: 67% | viability, T/C [5]: 79.1% | viability, T/C [6]: 76.1% | viability, T/C [7]: 67.3% | viability, T/C [8]: 55.1% | viability, T/C [9]: 62.3% | viability, T/C [10]: 51.5% | viability, T/C [11]: 69% | viability, T/C [12]: 62.1% | viability, T/C [13]: 55.5% | viability, T/C [14]: 57.2% | viability, T/C [15]: 61.6% | viability, T/C [16]: 53.1% | viability, T/C [17]: 62.6% | viability, T/C [18]: 48.5% | viability, T/C [19]: 42.4% | viability, T/C [20]: 39.3% | viability, T/C [21]: 38.2% | viability, T/C [22]: 36.1% | viability, T/C [23]: 48.1% | viability, T/C [24]: 33.2% | viability, T/C [25]: 27.5% | viability, T/C [26]: 39.1% | viability, T/C [27]: 43.6% | viability, T/C [28]: 42.6% | viability, T/C [29]: 42.5% | viability, T/C [30]: 37.4% | viability, T/C [31]: 29.4% | viability, T/C [32]: 41.9% | viability, T/C [33]: 34.3% | viability, T/C [34]: 32.9% | viability, T/C [35]: 37.3% | viability, T/C [36]: 32.8%

From PubChem BioAssay AID2060512 (Molecular Pharmacology Branch, DTP, NCI, 2025)
